Measurements as given in paper PMC4033646 (ACS Chemical Biology, 2014).

Biological target: (α4)2(β2)3 nAChR (A2B3, high affinity) (Rattus norvegicus, UniProt P09483+P12390, P09483:H144V/P09483:Q152F/P09483:T154L)
Assay: two-electrode voltage clamp, Xenopus oocytes, agonist dose-response
Assay type: cell-based
Conditions: -60 mV, ND96 Ca2+ free, pH 7.5

(α4)2(β2)3 nAChR (A2B3, high affinity), sequence (P12390 25-500): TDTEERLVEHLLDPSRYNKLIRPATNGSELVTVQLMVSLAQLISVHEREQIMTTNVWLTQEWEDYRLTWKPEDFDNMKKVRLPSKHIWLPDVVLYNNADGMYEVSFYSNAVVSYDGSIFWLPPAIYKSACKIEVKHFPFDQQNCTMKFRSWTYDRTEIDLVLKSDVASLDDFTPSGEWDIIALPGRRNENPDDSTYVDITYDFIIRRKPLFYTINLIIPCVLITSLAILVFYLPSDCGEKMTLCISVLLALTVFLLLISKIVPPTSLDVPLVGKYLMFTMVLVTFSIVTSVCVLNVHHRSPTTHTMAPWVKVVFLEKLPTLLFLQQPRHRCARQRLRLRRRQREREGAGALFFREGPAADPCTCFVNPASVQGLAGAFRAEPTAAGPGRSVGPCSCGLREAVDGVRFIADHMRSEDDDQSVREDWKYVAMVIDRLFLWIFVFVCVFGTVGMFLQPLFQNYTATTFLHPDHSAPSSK
(α4)2(β2)3 nAChR (A2B3, high affinity), sequence (P09483 31-630 H144V/Q152F/T154L): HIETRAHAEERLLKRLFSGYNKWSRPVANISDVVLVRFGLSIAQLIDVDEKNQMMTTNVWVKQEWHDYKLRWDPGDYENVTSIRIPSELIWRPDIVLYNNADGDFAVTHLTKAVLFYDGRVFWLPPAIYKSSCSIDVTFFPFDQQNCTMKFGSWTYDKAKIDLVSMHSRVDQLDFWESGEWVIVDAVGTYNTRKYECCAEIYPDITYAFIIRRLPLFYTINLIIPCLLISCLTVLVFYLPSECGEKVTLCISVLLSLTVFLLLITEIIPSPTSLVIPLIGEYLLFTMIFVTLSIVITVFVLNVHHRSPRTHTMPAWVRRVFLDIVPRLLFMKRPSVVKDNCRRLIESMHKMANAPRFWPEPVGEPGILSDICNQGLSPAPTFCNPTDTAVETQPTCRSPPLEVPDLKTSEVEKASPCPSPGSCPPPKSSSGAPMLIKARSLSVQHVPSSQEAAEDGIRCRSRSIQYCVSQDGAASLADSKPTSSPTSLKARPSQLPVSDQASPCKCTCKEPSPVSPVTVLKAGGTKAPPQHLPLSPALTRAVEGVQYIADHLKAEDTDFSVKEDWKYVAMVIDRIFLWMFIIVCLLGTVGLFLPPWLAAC

## OCCCCC#Cc1cncc(OC[C@@H]2CCN2)c1 [sazetidine-A]
  EC50: 4.8 ± 0.3 nM
